Consider five molecules from the supplement of paper PMC4862054.

Structures are written as SMILES. “And” between values parts separate entries of the source, which are not always exact repeats. Equal values may be shown once.

Holding throughout (conditions): incubation time: 72 h
Assay [1] deals with CAL-85-1. Briefly: normalised viability (% of control), CellTiter-Blue; higher = more viable cells (about 100 = DMSO control). As for the experimental part: (§1)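 DSRT, CellTiter-Blue viability, 72 h incubation. Signal is normalised to DMSO and benzethonium chloride controls. Value is the normalised response at dose 9.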
In assay [2] the test system is DU-4475. The assay is described as above. As for the experimental part: as §1
Assay [3] relates to CAL-51. The assay is described as above. As for the experimental part:
as §1

Assay [4] deals with HDQ-P1. Described as above. As for the experimental part:
as §1

Assay [5] concerns MDA-MB-453. The description is as above. As for the experimental part: as §1
Assay [6] has as its system CAL-148. Described as above. As for the experimental part: as §1
Assay [7] deals with CAL-85-1. Described as above. Here is the method:
(§2)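 DSRT, CellTiter-Blue viability, 72 h incubation. Signal is normalised to DMSO and benzethonium chloride controls. Value is the normalised response at dose 6.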
The source holds these as a separate data set.

Assay [8] concerns DU-4475. The description is as above. As for the experimental part: as §2
The source holds these as a separate data set.

For assay [9], the system named is CAL-51. The assay is described as above. As for the experimental part:
as §2
This is another data set of the same source.

Assay [10] deals with HDQ-P1. The assay is described as above. Here is the method:
as §2
This is another data set of the same source.

In assay [11] the test system is MDA-MB-453. The description is as above. Here is the method: as §2
The source holds these as a separate data set.

For assay [12], the system named is CAL-148. Described as above. Here is the method: as §2
This is another data set of the same source.

Assay [13] deals with CAL-85-1. Briefly: normalised response (% of control), CellTiter-Glo; higher = more viable cells (100 = DMSO, 0 = benzethonium chloride kill control). The method, boiled down:
(§3)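 A 20 µl suspension of breast cancer cells was seeded into each well of 384-well plates containing compound at 5 concentrations in 10-fold steps over a compound-specific 10,000-fold range. After 72 h incubation, CellTox Green fluorescence (485/520 nm) was read first, and CellTiter-Glo luminescence was read after 10 min at room temperature. Each plate was normalised against 0.1 % DMSO (100) and a positive kill control (0), and each value is the normalised signal at one concentration.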
In general terms: ATP-based viability assays read luminescence as a measure of living cells.

Assay [14] deals with HCC1599. The description is as above. The gist of the method:
as §3

Assay [15] concerns BT-549. The description is as above. The method, boiled down: as §3
For assay [16], the system named is CAL-120. Described as above. The gist of the method:
as §3

Assay [17] relates to DU-4475. The description is as above. The method, boiled down:
as §3

The test system of another assay is MCF-10A. Described as above. The gist of the method:
as §3

Assay [18] deals with Hs578T. The description is as above. The gist of the method: as §3
Assay [19] relates to MDA-MB-436. The description is as above. The gist of the method: as §3
Assay [20] has as its system MDA-MB-231. The description is as above. The method, boiled down:
as §3

For assay [21], the system named is MDA-MB-468. The assay is described as above. The method, boiled down:
as §3

For assay [22], the system named is MFM-223. The assay is described as above. The gist of the method: as §3
In a further assay the test system is BT-474. The description is as above. The gist of the method: as §3
In assay [23] the test system is CAL-51. The assay is described as above. The gist of the method: as §3
Assay [24] has as its system SK-BR-3. The assay is described as above. The gist of the method: as §3
Assay [25] relates to HCC1143. The description is as above. The gist of the method:
as §3

In assay [26] the test system is HDQ-P1. Described as above. The gist of the method:
as §3

Assay [27] concerns HCC1937. The assay is described as above. The gist of the method: as §3
Assay [28] has as its system MDA-MB-453. The assay is described as above. The method, boiled down: as §3
For assay [29], the system named is CAL-148. Described as above. The method, boiled down: as §3
The test system of assay [30] is CAL-85-1. In words: normalised viability (% of control), CellTiter-Blue; higher = more viable cells (100 = DMSO, 0 = benzethonium chloride kill control). As for the experimental part: (§4)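 DSRT, CellTiter-Blue viability, 72 h incubation. Signal is normalised to DMSO and benzethonium chloride controls. Value is the normalised response at dose 1.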
(Alamar Blue is a resazurin reagent that responds to reducing activity.)

Assay [31] has as its system HCC1599. The assay is described as above. Here is the method: as §4
Assay [32] concerns BT-549. Described as above. Here is the method: as §4
The subject of assay [33] is CAL-120. Described as above. As for the experimental part:
as §4

Assay [34] relates to DU-4475. The description is as above. Here is the method:
as §4

Assay [35] concerns Hs578T. The description is as above. Here is the method:
as §4

Assay [36] has as its system MDA-MB-436. The assay is described as above. Here is the method:
as §4

Assay [37] deals with MDA-MB-231. The description is as above. Here is the method: as §4
The subject of assay [38] is MDA-MB-468. The assay is described as above. Here is the method:
as §4

The test system of assay [39] is MFM-223. The description is as above. As for the experimental part: as §4
Assay [40] has as its system CAL-51. The description is as above. As for the experimental part:
as §4

For assay [41], the system named is SK-BR-3. The description is as above. Here is the method:
as §4

Assay [42] deals with HCC1143. Described as above. As for the experimental part:
as §4

Assay [43] relates to HDQ-P1. The assay is described as above. Here is the method:
as §4

The test system of assay [44] is HCC1937. Described as above. As for the experimental part: as §4
For assay [45], the system named is MDA-MB-453. Described as above. As for the experimental part: as §4
Assay [46] relates to CAL-148. Described as above. Here is the method: as §4

In the case of `CN(Cc1cnc2nc(N)nc(N)c2n1)c1ccc(C(=O)N[C@@H](CCC(=O)O)C(=O)O)cc1` [Methotrexate] (10000 nM), the normalised viability in the assay with CAL-85-1 [1] amounted to 65.3%; with DU-4475 [2], 102%; with CAL-51 [3], 39.2%; with HDQ-P1 [4] it was 99.7%; with MDA-MB-453 [5], 90%; in the assay on CAL-148 [6], 69.1%.
As to `CO[C@@H]1[C@H](N(C)C(=O)c2ccccc2)C[C@H]2O[C@]1(C)n1c3ccccc3c3c4c(c5c6ccccc6n2c5c31)C(=O)NC4` [Midostaurin] (300 nM), the normalised viability is 86.6% with CAL-85-1 [7]; 76% with DU-4475 [8]; 28.9% in the assay with CAL-51 [9]; 53.6% in the assay with HDQ-P1 [10]; 65.5% with MDA-MB-453 [11]; 106% in the assay with CAL-148 [12].
With `O=C(CCCCCCC(=O)Nc1ccccc1)NO` [Vorinostat] (1 nM), the normalised response in the assay with CAL-85-1 [13] turned out to be 104%; in the assay on HCC1599 [14] it was 94.1%; with BT-549 [15], 108%; in the assay on CAL-120 [16], 95.9%; in the assay on DU-4475 [17], 98.4%; in the assay with MCF-10A, 92.1%. For the same molecule, the normalised response in the assay with Hs578T [18] stood at 97.5%; in the assay with MDA-MB-436 [19], 98.3%; with MDA-MB-231 [20], 94.8%; in the assay with MDA-MB-468 [21], 96%; in the assay on MFM-223 [22], 102%; in the assay on BT-474, 93.1%. The normalised response in the assay with CAL-51 [23] is 80.8%; with SK-BR-3 [24], 88%; with HCC1143 [25], 91.1%; in the assay on HDQ-P1 [26] it was 104%; with HCC1937 [27], 99%; in the assay with MDA-MB-453 [28], 97.9%. In the assay on CAL-148 [29], the normalised response is 102%. Besides, the normalised viability was 91.5% and 104% in the assay with CAL-85-1 [30]; 97.8% and 94.4% in the assay on HCC1599 [31]; 94.4% and 117% with BT-549 [32]; 83.4% and 95.8% with CAL-120 [33]; 100% and 106% in the assay on DU-4475 [34]; 108% and 97.3% with Hs578T [35]. Further, the normalised viability is 101% and 100% with MDA-MB-436 [36]; 89.6% and 94.1% with MDA-MB-231 [37]; 109% in the assay with MDA-MB-468 [38]; 90% and 100% in the assay on MFM-223 [39]; 103% and 96% in the assay on CAL-51 [40]; 89.7% and 91.5% in the assay with SK-BR-3 [41]. In addition, the normalised viability in the assay with HCC1143 [42] was 94.7% and 100%; in the assay with HDQ-P1 [43], 84.8% and 99.5%; in the assay on HCC1937 [44] it was 102% and 89.7%; in the assay on MDA-MB-453 [45] it was 106%; with CAL-148 [46], 89.8% and 101%.
`COc1c2occc2cc2ccc(=O)oc12` [Methoxsalen] (10000 nM): the normalised viability in the assay on CAL-85-1 [1] was 61%; in the assay with DU-4475 [2] it was 71.6%; in the assay with CAL-51 [3], 49.2%; in the assay with HDQ-P1 [4] it was 128%; in the assay on MDA-MB-453 [5], 28.5%; in the assay on CAL-148 [6] it was 53.6%.
With `CCN(CC)CCCC(C)Nc1ccnc2cc(Cl)ccc12` (stereo not given) [Chloroquine] (990 nM), the normalised viability was 91.3% with CAL-85-1 [1]; 115% in the assay on DU-4475 [2]; 89.5% with CAL-51 [3]; 126% in the assay with HDQ-P1 [4]; 98.4% with MDA-MB-453 [5]; 84.8% in the assay with CAL-148 [6].
